Test results taken from ChEMBL document CHEMBL5032500, “Adenosine A2AR/A1R Antagonists Enabling Additional H3R Antagonism for the Treatment of Parkinson's Disease” (J Med Chem, 2021).
The source made the active and inactive calls. The calls are words filed in the database; no cut-off is given here.

Key:
[1] = biological target: T1, Adenosine receptor A1 (Homo sapiens, UniProt P30542); test: Displacement of [3H]CCPA from human recombinant adenosine A1 receptor expressed in CHO cells by liquid scintillation counting analysis; assay type: cell-based
T1 sequence (P30542 whole entry): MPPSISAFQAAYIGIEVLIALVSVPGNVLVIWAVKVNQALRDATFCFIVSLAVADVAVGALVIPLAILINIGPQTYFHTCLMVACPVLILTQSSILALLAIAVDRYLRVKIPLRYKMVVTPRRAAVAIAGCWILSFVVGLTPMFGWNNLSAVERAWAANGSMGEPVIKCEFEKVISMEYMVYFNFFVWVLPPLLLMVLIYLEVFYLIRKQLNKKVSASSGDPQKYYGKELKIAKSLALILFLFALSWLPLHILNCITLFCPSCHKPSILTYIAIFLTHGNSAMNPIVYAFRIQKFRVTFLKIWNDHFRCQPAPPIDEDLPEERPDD

[2] = biological target: T2, Adenosine receptor A2a (Homo sapiens, UniProt P29274); test: Displacement of [3H]MSX-2 from human recombinant adenosine A2A receptor expressed in CHO cells by liquid scintillation counting analysis; assay type: cell-based
[3] = biological target: T3, Adenosine receptor A2b (Homo sapiens, UniProt P29275); test: Displacement of [3H]PSB-603 from human recombinant adenosine A2B receptor expressed in CHO cells by liquid scintillation counting analysis; assay type: cell-based
T3 sequence (P29275 whole entry): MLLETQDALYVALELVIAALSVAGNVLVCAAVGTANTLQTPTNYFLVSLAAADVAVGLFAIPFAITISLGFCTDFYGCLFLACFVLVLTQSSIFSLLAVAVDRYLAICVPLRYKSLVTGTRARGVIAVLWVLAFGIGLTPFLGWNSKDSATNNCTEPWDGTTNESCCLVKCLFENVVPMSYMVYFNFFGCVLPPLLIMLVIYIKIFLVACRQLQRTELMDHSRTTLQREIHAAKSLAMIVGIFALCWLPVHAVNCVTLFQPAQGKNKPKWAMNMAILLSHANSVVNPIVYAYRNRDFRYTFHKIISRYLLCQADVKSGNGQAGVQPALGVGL

[4] = biological target: T4, Adenosine receptor A3 (Homo sapiens, UniProt P0DMS8); test: Displacement of [3H]PSB-11 from human recombinant adenosine A3 receptor expressed in CHO cells by liquid scintillation counting analysis; assay type: cell-based
T4 sequence (P0DMS8 whole entry): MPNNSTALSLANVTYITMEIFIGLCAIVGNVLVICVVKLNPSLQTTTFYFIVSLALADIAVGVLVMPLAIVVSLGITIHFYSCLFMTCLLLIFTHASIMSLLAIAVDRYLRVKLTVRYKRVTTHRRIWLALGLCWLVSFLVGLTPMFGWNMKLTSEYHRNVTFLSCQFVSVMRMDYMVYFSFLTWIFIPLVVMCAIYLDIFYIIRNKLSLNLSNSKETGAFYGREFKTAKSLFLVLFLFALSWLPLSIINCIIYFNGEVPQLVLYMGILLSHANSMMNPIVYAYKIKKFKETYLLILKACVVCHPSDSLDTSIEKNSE

[5] = biological target: Histamine H3 receptor (Homo sapiens, UniProt Q9Y5N1); test: Displacement of [3H] N-alpha methylhistamine from human recombinant histamine H3 receptor expressed in HEK293 cells measured after 90 mins; assay type: cell-based
[6] = biological target: T2, Adenosine receptor A2a; test: Displacement of [3H]MSX-2 from human recombinant adenosine A2A receptor expressed in CHO cells at 1 uM by liquid scintillation counting analysis; assay type: cell-based; settings: filed as antagonist
[7] = biological target: T5, Adenosine receptor A2b (Homo sapiens) (UniProt P29275); test: Displacement of [3H]PSB-603 from human recombinant adenosine A2B receptor expressed in CHO cells at 1 uM by liquid scintillation counting analysis; assay type: cell-based
T5 sequence (whole entry): T3 sequence (P29275 whole entry)

[8] = biological target: T6, Adenosine receptor A3 (Homo sapiens) (UniProt P0DMS8); test: Displacement of [3H]PSB-11 from human recombinant adenosine A3 receptor expressed in CHO cells at 1 uM by liquid scintillation counting analysis; assay type: cell-based
T6 sequence (whole entry): T4 sequence (P0DMS8 whole entry)

[9] = test system: SH-SY5Y; test: Cytotoxicity against human SH-SY5Y cells assessed as remaining cell viability at 1000 nM incubated for 24 hrs; assay type: functional
[10] = biological target: T2, Adenosine receptor A2a; test: […] activity at human recombinant adenosine A2A receptor expressed in CHO cells assessed as inhibition of NECA-induced cAMP accumulation incubated for 20 mins by radioligand competition binding assay; assay type: functional, cell-based
[11] = biological target: Histamine H1 receptor (Homo sapiens, UniProt P35367); test: Displacement of [3H]pyrilamine from human recombinant histamine H1 receptor expressed in CHO cells by liquid scintillation counting analysis; assay type: cell-based
[12] = biological target: Histamine H4 receptor (Homo sapiens, UniProt Q9H3N8); test: Displacement of [3H]histamine from human recombinant histamine H4 receptor expressed in sf9 cells by liquid scintillation counting analysis
[13] = Displacement of [3H]SCH23390 from human recombinant dopamine D1 receptor expressed in HEK293 cells by liquid scintillation counting analysis; assay type: cell-based
[14] = biological target: D(1B) dopamine receptor (Homo sapiens, UniProt P21918); test: Displacement of [3H]SCH23390 from human recombinant dopamine D5 receptor expressed in HEK293 cells by liquid scintillation counting analysis; assay type: cell-based
[15] = biological target: D(2) dopamine receptor (Homo sapiens, UniProt P14416); test: Displacement of [3H]spiperone from human recombinant dopamine D2S receptor expressed in CHO cells by liquid scintillation counting analysis; assay type: cell-based
[16] = biological target: D(3) dopamine receptor (Homo sapiens, UniProt P35462); test: Displacement of [3H]spiperone from human recombinant dopamine D3 receptor expressed in CHO cells by liquid scintillation counting analysis; assay type: cell-based
[17] = biological target: MAO-A (Homo sapiens, UniProt P21397); test: Inhibition of human recombinant MAO-A using kynuramine as substrate at 10 uM measured for 30 mins by spectrophotometric analysis; settings: probe kynuramine
[18] = biological target: MAO-B (Homo sapiens, UniProt P27338); test: Inhibition of human recombinant MAO-B using kynuramine as substrate at 10 uM measured for 30 mins by spectrophotometric analysis; settings: probe kynuramine
[19] = test system: Rattus norvegicus; test: Antiparkinson's activity in ip dosed L-DOPA induced dyskinesia Sprague-Dawley rat model assessed as reduction in dyskinesia by measuring abnormal involuntary movement upto 21 days; assay type: functional, organism-based; settings: dose 0.1-1 mg/kg, time day <=21
[20] = test system: Mus musculus; test: Induction of wakefulness in C57BL/6 mouse at 1 mg/kg, po by EEG analysis; assay type: functional, organism-based
[21] = test system: Mus musculus; test: Induction of wakefulness in C57BL/6 mouse assessed as increase in time spent awake at 2 mg/kg, po by EEG analysis; assay type: functional, organism-based
[22] = test system: Mus musculus; test: Induction of wake promoting activity in C57BL/6 mouse assessed as reduction in slow wave sleep at 2 mg/kg, po by EEG analysis; assay type: functional, organism-based
[23] = Toxicity in C57BL/6 mouse assessed as effect on paradoxical sleep at 2 mg/kg, po by EEG analysis; assay type: organism-based; settings: in vivo
[24] = species on record: Homo sapiens; test: Selectivity index, ratio of Ki for human recombinant adenosine A1 receptor to Ki for human recombinant histamine H3 receptor
[25] = species on record: Homo sapiens; test: Selectivity index, ratio of Ki for human recombinant adenosine A2A receptor to Ki for human recombinant histamine H3 receptor
[26] = species on record: Homo sapiens; test: Selectivity index, ratio of Ki for human recombinant adenosine A2B receptor to Ki for human recombinant histamine H3 receptor
[27] = species on record: Homo sapiens; test: Selectivity index, ratio of Ki for human recombinant adenosine A3 receptor to Ki for human recombinant histamine H3 receptor
[28] = species on record: Homo sapiens; test: Selectivity index, ratio of Ki for human recombinant dopamine D2S receptor to Ki for human recombinant histamine H3 receptor
[29] = species on record: Homo sapiens; test: Selectivity index, ratio of Ki for human recombinant dopamine D3 receptor to Ki for human recombinant histamine H3 receptor
[30] = species on record: Homo sapiens; test: Selectivity index, ratio of Ki for human recombinant adenosine A2A receptor to Ki for human recombinant adenosine A1 receptor
[31] = species on record: Homo sapiens; test: Selectivity index, ratio of Ki for human recombinant adenosine A2B receptor to Ki for human recombinant adenosine A1 receptor
[32] = biological target: Adenosine receptors; A1 & A3 (Homo sapiens) (UniProt P30542+P0DMS8); test: Selectivity index, ratio of Ki for human recombinant adenosine A3 receptor to Ki for human recombinant adenosine A1 receptor; assay type: protein assay
[33] = species on record: Homo sapiens; test: Selectivity index, ratio of Ki for human recombinant dopamine D2S receptor to Ki for human recombinant adenosine A1 receptor
[34] = species on record: Homo sapiens; test: Selectivity index, ratio of Ki for human recombinant dopamine D3 receptor to Ki for human recombinant adenosine A1 receptor
[35] = species on record: Homo sapiens; test: Selectivity index, ratio of Ki for human recombinant adenosine A2B receptor to Ki for human recombinant adenosine A2A receptor
[36] = species on record: Homo sapiens; test: Selectivity index, ratio of Ki for human recombinant adenosine A3 receptor to Ki for human recombinant adenosine A2A receptor
[37] = species on record: Homo sapiens; test: Selectivity index, ratio of Ki for human recombinant dopamine D2S receptor to Ki for human recombinant adenosine A2A receptor
[38] = species on record: Homo sapiens; test: Selectivity index, ratio of Ki for human recombinant dopamine D3 receptor to Ki for human recombinant adenosine A2A receptor
[39] = species on record: Homo sapiens; test: Selectivity index, ratio of Ki for human recombinant adenosine A3 receptor to Ki for human recombinant adenosine A2B receptor
[40] = species on record: Homo sapiens; test: Selectivity index, ratio of Ki for human recombinant dopamine D2S receptor to Ki for human recombinant adenosine A2B receptor
[41] = species on record: Homo sapiens; test: Selectivity index, ratio of Ki for human recombinant dopamine D3 receptor to Ki for human recombinant adenosine A2B receptor
[42] = species on record: Homo sapiens; test: Selectivity index, ratio of Ki for human recombinant dopamine D2S receptor to Ki for human recombinant adenosine A3 receptor
[43] = species on record: Homo sapiens; test: Selectivity index, ratio of Ki for human recombinant dopamine D3 receptor to Ki for human recombinant adenosine A3 receptor
[44] = species on record: Homo sapiens; test: Selectivity index, ratio of Ki for human recombinant dopamine D3 receptor to Ki for human recombinant dopamine D2S receptor
[45] = biological target: T1, Adenosine receptor A1; test: Binding affinity to human recombinant adenosine A1 receptor expressed in CHO cells using [3H]CCPA by functional activity assay; assay type: cell-based
[46] = biological target: T3, Adenosine receptor A2b; test: Binding affinity to human recombinant adenosine A2B receptor expressed in CHO cells using [3H]PSB-603 by functional activity assay; assay type: cell-based
[47] = biological target: Amine oxidase [flavin-containing] B (Homo sapiens, UniProt P27338); test: Inhibition of human recombinant MAO-B using kynuramine as substrate measured for 30 mins by spectrophotometric analysis
Amine oxidase [flavin-containing] B, sequence (P27338 whole entry): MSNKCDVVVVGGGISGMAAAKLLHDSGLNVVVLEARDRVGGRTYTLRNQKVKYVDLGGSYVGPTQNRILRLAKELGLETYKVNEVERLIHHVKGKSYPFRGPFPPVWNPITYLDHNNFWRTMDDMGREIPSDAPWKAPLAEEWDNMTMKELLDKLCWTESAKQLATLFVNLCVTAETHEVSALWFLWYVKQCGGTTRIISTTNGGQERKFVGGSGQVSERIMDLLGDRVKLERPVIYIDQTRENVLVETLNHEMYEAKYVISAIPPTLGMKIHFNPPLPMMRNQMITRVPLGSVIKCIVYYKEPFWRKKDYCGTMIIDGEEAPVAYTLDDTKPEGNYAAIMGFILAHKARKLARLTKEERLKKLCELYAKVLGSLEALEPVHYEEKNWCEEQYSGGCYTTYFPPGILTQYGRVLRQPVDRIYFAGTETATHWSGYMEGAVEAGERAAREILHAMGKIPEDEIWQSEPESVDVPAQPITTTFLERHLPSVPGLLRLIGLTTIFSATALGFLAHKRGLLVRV

Histamine H3 receptor, sequence (Q9Y5N1 whole entry): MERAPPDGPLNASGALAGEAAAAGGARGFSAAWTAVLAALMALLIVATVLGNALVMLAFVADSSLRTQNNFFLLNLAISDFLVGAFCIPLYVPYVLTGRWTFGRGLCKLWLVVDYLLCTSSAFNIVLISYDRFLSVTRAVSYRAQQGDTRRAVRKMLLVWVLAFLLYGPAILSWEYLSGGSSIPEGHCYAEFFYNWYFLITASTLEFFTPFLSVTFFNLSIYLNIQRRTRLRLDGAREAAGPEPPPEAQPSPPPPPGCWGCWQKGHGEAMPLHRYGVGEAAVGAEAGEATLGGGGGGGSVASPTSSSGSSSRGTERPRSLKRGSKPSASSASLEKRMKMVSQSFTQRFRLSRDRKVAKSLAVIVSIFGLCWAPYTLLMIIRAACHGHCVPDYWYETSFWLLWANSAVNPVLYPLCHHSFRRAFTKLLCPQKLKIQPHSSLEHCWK
T2 sequence (P29274 whole entry): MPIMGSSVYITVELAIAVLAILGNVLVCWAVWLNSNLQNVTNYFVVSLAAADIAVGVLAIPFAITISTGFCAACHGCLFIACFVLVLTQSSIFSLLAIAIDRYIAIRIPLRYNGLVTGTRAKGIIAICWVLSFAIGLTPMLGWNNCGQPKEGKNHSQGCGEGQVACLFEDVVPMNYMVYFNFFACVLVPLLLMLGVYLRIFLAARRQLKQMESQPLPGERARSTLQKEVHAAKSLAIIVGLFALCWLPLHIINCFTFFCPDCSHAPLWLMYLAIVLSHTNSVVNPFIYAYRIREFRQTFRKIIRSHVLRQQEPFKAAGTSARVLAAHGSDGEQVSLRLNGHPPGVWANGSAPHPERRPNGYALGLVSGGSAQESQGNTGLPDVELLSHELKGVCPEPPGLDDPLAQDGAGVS
Histamine H1 receptor, sequence (P35367 whole entry): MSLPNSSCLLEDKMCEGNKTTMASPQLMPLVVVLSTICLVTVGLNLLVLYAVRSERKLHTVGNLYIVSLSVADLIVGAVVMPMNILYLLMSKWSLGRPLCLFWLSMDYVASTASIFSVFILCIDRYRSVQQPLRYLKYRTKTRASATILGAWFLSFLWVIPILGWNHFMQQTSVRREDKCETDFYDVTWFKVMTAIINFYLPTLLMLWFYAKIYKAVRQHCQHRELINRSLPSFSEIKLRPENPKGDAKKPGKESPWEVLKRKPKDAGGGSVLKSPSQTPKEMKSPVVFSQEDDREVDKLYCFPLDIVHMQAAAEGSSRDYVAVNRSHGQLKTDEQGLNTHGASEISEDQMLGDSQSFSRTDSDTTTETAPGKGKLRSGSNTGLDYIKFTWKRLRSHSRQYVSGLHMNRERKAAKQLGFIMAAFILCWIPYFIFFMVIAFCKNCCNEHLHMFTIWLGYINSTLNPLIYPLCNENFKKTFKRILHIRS
Histamine H4 receptor, sequence (Q9H3N8 whole entry): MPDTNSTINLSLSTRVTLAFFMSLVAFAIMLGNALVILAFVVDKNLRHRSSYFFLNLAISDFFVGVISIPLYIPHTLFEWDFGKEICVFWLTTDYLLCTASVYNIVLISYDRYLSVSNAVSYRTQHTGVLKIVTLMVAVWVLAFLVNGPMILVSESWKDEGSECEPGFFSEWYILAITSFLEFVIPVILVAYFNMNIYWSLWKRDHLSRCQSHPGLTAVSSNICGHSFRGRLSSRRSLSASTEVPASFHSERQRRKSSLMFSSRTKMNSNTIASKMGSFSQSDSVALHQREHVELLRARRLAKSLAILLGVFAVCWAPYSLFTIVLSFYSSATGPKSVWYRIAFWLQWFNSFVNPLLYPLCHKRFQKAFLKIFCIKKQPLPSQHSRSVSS
D(3) dopamine receptor, sequence (P35462 whole entry): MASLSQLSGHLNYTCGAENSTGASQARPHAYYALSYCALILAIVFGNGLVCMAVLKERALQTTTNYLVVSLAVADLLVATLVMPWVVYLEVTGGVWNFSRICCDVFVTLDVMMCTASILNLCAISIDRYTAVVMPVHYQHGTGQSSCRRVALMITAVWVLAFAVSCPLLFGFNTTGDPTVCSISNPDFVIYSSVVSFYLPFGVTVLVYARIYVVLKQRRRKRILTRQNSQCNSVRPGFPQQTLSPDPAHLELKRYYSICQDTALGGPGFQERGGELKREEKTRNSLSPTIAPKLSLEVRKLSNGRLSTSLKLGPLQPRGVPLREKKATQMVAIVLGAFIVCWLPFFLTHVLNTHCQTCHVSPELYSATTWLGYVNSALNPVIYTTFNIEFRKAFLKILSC
MAO-B, sequence (P27338 whole entry): as the sequence (P27338 whole entry) above
D(2) dopamine receptor, sequence (P14416 whole entry): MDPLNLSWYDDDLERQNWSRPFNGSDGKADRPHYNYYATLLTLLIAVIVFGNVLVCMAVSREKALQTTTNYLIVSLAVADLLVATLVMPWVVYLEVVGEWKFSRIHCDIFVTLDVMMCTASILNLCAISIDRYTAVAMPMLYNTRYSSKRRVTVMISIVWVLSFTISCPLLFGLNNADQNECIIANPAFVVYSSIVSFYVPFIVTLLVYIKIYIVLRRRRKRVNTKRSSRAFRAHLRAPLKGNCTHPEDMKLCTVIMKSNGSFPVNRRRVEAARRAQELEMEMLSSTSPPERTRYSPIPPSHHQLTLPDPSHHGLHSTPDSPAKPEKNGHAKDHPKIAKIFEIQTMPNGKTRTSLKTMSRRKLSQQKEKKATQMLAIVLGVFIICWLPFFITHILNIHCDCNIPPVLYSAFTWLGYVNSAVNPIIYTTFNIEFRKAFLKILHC
D(1B) dopamine receptor, sequence (P21918 whole entry): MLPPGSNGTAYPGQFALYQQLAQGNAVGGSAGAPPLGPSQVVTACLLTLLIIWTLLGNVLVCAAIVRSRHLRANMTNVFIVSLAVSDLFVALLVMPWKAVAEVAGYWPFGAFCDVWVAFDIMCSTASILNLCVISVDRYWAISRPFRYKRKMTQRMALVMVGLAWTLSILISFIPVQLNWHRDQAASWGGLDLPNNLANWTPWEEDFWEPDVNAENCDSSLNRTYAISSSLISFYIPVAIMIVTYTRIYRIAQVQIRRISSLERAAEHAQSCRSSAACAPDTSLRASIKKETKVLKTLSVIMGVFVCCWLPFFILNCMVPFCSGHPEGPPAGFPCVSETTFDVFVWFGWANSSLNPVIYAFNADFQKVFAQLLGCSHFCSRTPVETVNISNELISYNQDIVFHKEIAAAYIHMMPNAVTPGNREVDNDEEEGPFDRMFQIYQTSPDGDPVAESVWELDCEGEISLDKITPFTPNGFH
MAO-A, sequence (P21397 whole entry): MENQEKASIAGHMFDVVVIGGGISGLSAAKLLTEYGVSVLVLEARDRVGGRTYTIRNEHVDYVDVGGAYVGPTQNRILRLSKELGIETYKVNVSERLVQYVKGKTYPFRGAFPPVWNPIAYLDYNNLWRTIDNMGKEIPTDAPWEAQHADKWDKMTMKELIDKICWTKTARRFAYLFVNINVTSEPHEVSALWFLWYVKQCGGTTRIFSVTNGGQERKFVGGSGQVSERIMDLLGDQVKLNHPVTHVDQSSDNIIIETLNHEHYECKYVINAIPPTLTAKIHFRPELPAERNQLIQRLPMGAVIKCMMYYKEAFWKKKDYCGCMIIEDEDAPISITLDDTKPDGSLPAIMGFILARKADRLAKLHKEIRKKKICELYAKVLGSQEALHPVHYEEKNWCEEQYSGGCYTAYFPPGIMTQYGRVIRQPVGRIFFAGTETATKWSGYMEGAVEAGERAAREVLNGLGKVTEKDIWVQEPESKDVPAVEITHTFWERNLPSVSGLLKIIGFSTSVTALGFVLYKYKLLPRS

| SMILES | Ki [1] | Ki [2] | Ki [3] | Ki [4] | Ki [5] | Activity [10] | Ki [11] | Ki [12] | Ki [13] | Ki [14] | Ki [15] | Ki [16] | inhibition at 0.5 h, 10 µM [17] | inhibition at 0.5 h, 10 µM [18] | Activity [19] | Ratio Ki [24] | Ratio Ki [25] | Ratio Ki [26] | Ratio Ki [27] | Ratio Ki [28] | other results |
| --- | --- | --- | --- | --- | --- | --- | --- | --- | --- | --- | --- | --- | --- | --- | --- | --- | --- | --- | --- | --- | --- |
| Nc1nc(-c2ccccc2)c2c(n1)-c1ccc(OCCCN3CCCC3)cc1C2 | 828 nM | > 1000 nM | > 1000 nM | > 1000 nM | 11 nM |  |  |  |  |  |  |  |  |  |  |  |  |  |  |  | inhibition [6]: 40%; inhibition [7]: 25%; inhibition [8]: 35%; Activity [9]: >75% |
| Nc1nc(-c2ccccc2)c2c(n1)-c1cc(OCCCN3CCCCC3)ccc1C2=O | 11.2 nM | 4.01 nM | 43.5 nM | 150 nM | 52 nM | inactive | > 1000 nM | > 10000 nM | > 1000 nM | > 1000 nM | 1590 nM | 364 nM | 16% | 50% | Dose-Dependent Effect | 0.22 | 0.08 | 0.84 | 3 | 31 | Activity [20]: inactive; Activity [21]: Active; Activity [22]: Active; Activity [23]: Non-Toxic; Ratio Ki [29]: 7; Ratio Ki [30]: 0.36; Ratio Ki [31]: 4; Ratio Ki [32]: 13; Ratio Ki [33]: 142; Ratio Ki [34]: 33; Ratio Ki [35]: 11; Ratio Ki [36]: 37; Ratio Ki [37]: 396; Ratio Ki [38]: 91; Ratio Ki [39]: 3; Ratio Ki [40]: 36; Ratio Ki [41]: 8; Ratio Ki [42]: 11; Ratio Ki [43]: 2; Ratio Ki [44]: 0.23 |
| Nc1nc(-c2ccccc2)c2c(n1)-c1cc(OCCN3CCOCC3)ccc1C2=O |  |  |  | 430 nM |  |  |  |  |  |  |  |  |  |  |  |  |  |  |  |  | EC50 [45]: 48 nM; EC50 [46]: 230 nM |
| Nc1nc(-c2ccccc2)c2c(n1)-c1cc(OCCCN3CCCC3)ccc1C2 | 11.5 nM | 7.25 nM | 36.9 nM | 150 nM | 11 nM | inactive | > 1000 nM | > 10000 nM | > 1000 nM | > 1000 nM | 1250 nM | 290 nM | 7.4% | 57% | Dose-Dependent Effect | 1 | 0.66 | 3 | 14 | 113 | IC50 [47]: > 1000 nM; Ratio Ki [29]: 26; Ratio Ki [30]: 0.63; Ratio Ki [31]: 3; Ratio Ki [32]: 13; Ratio Ki [33]: 108; Ratio Ki [34]: 25; Ratio Ki [35]: 5; Ratio Ki [36]: 21; Ratio Ki [37]: 172; Ratio Ki [38]: 40; Ratio Ki [39]: 4; Ratio Ki [40]: 34; Ratio Ki [41]: 8; Ratio Ki [42]: 8; Ratio Ki [43]: 2; Ratio Ki [44]: 0.23 |
